Source: US5091409A (priority 1990, dated 1992)
Where a name gives a salt, the structure may show the parent alone. Read-outs that look alike come from different tables or passages of the source.

Columns and labels:
intraocular pressure = details: cited from earlier work
carbonic anhydrase = carbonic anhydrase (Homo sapiens, UniProt P00918); experiment: carbonic anhydrase inhibition (I50) and Ki, methods of Ponticello et al., J. Med. Chem., 30, 591 (1987); format: biochemical; details: for IC50: carbonic anhydrase inhibition
[1] = system: ocular hypertensive monkey; experiment: drop in IOP in the ocular hypertensive monkey (Lee et al., Curr. Eye Res., 4,775-781 (1985)); format: in vivo; details: 16 hours after treatment
[2] = carbonic anhydrase, main value, read-out: Ki
[3] = value in parentheses, hi = more active component of racemic mixture, read-out: Ki (hi)

Structure (SMILES) | Ki (carbonic anhydrase; [2]) | Ki (carbonic anhydrase; [3]) | IC50 (carbonic anhydrase) | also measured
CNC(=O)Oc1ccc2c(c1)[C@]1(C)CCN(C)[C@@H]1N2C [physostigmine] |  |  |  | effect on intraocular pressure (intraocular pressure; background statement): reduce intraocular pressure
CCC[C@@H]1C[C@H](NC)c2cc(S(N)(=O)=O)sc2S1(=O)=O (relative stereo) [Compound 7] | 2.8 nM | 0.64 nM |  | 
CCN[C@H]1C[C@@H](CC)S(=O)(=O)c2sc(S(N)(=O)=O)cc21 [Compound 11] | 1 nM |  | 0.8 nM | 
CCN[C@H]1C[C@H](CC)S(=O)(=O)c2sc(S(N)(=O)=O)cc21 [Compound 10] | 0.3 nM |  | 0.5 nM | 
CCN[C@H]1C[C@H](C)S(=O)(=O)c2sc(S(N)(=O)=O)cc21 [Compound 8] |  |  |  | drop in IOP [1]: 5.6 mmHg
CCC[C@H]1C[C@H](NCC)c2cc(S(N)(=O)=O)sc2S1(=O)=O.Cl [Compound 1, (S,S) (-)5,6-Dihydro-4-ethylamino-6-(n-propyl)-4H-thieno[2,3-b]thiopyran-2-sulfonamide-7,7-dioxide hydrochloride] |  |  |  | drop in IOP [1]: 11.3 mmHg
C=CC[C@H]1C[C@H](NCC)c2cc(S(N)(=O)=O)sc2S1(=O)=O (relative stereo) [Compound 12, trans-6-Allyl-5,6-dihydro-4-ethylamino-4H-thieno[2,3-b]thiopyran-2-sulfonamide-7,7-dioxide hydrochloride] |  |  | 0.23 nM | 
CCC[C@H]1C[C@H](NC)c2cc(S(N)(=O)=O)sc2S1(=O)=O (relative stereo) [Compound 6] | 2.1 nM | 0.85 nM |  | 
CC(C)(C)NC[C@H](O)COc1nsnc1N1CCOCC1 [(S)-1-tert-Butylamino[(4-morpholino-1,2,5-thiadiazol-3-yl)oxy]-2-propanol] |  |  |  | local anesthetic properties (intraocular pressure; advantage over many other β-adrenergic blocking agents, background statement): devoid of local anesthetic properties; unwanted side effects (intraocular pressure): devoid of many unwanted side effects associated with pilocarpine
CCCN[C@H]1C[C@H](CCC)S(=O)(=O)c2sc(S(N)(=O)=O)cc21 [Compound 3] | 0.23 nM |  | 0.15 nM | 
CC[C@@H]1C(=O)OC[C@@H]1Cc1cncn1C [pilocarpine] |  |  |  | effect on intraocular pressure (intraocular pressure; background statement): reduce intraocular pressure
CC[C@@H]1C[C@H](NC)c2cc(S(N)(=O)=O)sc2S1(=O)=O (relative stereo) [Compound 5] | 7.1 nM | 2.6 nM |  | 
CCN[C@H]1C[C@@H](CC(C)C)S(=O)(=O)c2sc(S(N)(=O)=O)cc21 (relative stereo) [Compound 14] | 2.6 nM | 0.13 nM |  | 
CC[C@H]1C[C@H](NC)c2cc(S(N)(=O)=O)sc2S1(=O)=O (relative stereo) [Compound 4] | 3.6 nM | 1.8 nM |  | 
C=CC[C@@H]1C[C@H](NCC)c2cc(S(N)(=O)=O)sc2S1(=O)=O [Compound 13, cis-6-Allyl-5,6-dihydro-4H-4-ethylaminothieno[2,3-b]thiopyran-2-sulfonamide-7,7-dioxide hydrochloride] | 0.4 nM |  | 0.21 nM | drop in IOP [1]: 9.8 mmHg
